Test results from ChEMBL document CHEMBL2034920, “Protuboxepin A, a marine fungal metabolite, inducing metaphase arrest and chromosomal misalignment in tumor cells” (Bioorg Med Chem, 2012).
pKd: −log10 of the molar value. The source made the active and inactive calls. No cut-off for these calls is given here.

Assays:
[1] = Cell cycle arrest in human Hep3B cells assessed as induction of prometaphase arrest at 10 nM after 24 hrs by immunofluorescence assay; type: functional, cell-based; conditions: Hep 3B2
[2] = Cell cycle arrest in human Hep3B cells assessed as increase of cells with misaligned chromosomes at 10 nM after 24 hrs by immunofluorescence assay; type: functional, cell-based; conditions: Hep 3B2
[3] = system: Hep 3B2; test: Disruption of alpha-tubulin networks in human Hep3B cells at 10 nM after 18 hrs by immunofluorescence assay; type: cell-based
[4] = system: Hep 3B2; test: Disruption of alpha-tubulin networks in human Hep3B cells assessed as induction of polyglutamylated-tubulin bleb formation at 10 nM after 18 hrs by immunofluorescence assay; type: cell-based
[5] = system: Hep 3B2; test: Disruption of alpha-tubulin networks in human Hep3B cells assessed as increasing acetylated-tubulin signal at 10 nM after 18 hrs by immunofluorescence assay; type: cell-based
[6] = target: Tubulin (Homo sapiens) (UniProt P68371+Q9H4B7+P0DPH7+P68366+Q13509+Q71U36+P04350+Q3ZCM7+P07437+P68363+Q9BQE3+Q6PEY2+Q13885+Q9BVA1+Q9BUF5); test: Disruption of gamma-tubulin networks in human Hep3B cells at 10 nM after 18 hrs by immunofluorescence assay; type: cell-based; conditions: Hep 3B2
[7] = system: Hep 3B2; test: Induction of apoptosis in human Hep3B cells assessed as roundup morphology after 48 hrs by microscopic analysis; type: functional, cell-based
[8] = system: Hep 3B2; test: Induction of chromosome mislocalization in human Hep3B cells at 80 to 160 uM after 18 hrs by immunofluorescence assay; type: functional, cell-based
[9] = system: Hep 3B2; test: Induction of chromosome misalignment in nucleus of human Hep3B cells at 80 to 160 uM after 18 hrs by immunofluorescence staining; type: functional, cell-based
[10] = target: T1, Tubulin (Sus scrofa) (UniProt P02554+P02550); test: Induction of porcine tubulin polymerization at 160 uM measured for every 1 min for 60 mins by spectrophotometry; type: protein assay
T1 sequence (P02550 whole entry, looked up): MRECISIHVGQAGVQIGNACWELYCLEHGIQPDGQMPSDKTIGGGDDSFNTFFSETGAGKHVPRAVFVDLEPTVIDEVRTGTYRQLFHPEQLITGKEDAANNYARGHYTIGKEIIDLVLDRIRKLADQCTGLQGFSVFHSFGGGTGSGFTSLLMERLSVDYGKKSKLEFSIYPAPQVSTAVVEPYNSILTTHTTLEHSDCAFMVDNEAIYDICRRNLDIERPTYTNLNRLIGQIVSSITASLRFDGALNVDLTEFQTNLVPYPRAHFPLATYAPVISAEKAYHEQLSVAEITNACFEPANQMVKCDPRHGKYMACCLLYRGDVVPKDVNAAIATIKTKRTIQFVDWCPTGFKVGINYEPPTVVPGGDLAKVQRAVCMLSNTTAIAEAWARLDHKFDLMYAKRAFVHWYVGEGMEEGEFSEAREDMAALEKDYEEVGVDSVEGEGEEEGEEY
T1 sequence (P02554 whole entry, looked up): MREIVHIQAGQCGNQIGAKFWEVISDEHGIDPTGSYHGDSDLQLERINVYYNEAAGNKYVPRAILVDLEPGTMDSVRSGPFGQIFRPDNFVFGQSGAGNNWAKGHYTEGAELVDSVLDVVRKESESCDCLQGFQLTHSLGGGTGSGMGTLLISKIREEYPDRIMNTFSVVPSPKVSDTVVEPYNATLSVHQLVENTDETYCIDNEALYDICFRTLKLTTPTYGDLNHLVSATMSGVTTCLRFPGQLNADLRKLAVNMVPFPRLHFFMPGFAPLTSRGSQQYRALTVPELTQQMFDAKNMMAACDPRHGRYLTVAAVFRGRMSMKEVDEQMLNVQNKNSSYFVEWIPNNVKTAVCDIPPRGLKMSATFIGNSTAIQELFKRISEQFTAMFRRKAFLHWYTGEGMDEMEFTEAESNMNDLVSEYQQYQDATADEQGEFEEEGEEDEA

[11] = Cell cycle arrest in human Hep3B cells assessed as induction of chromosome misalignment in nuclei at 80 to 160 uM after 24 hrs by immunofluorescence assay; type: functional, cell-based; conditions: Hep 3B2
[12] = Cell cycle arrest in human Hep3B cells assessed as accumulation at S phase at 80 uM after 24 hrs by flow cytometry (reference value: 11.18%); type: functional, cell-based; conditions: Hep 3B2
[13] = Cell cycle arrest in human Hep3B cells assessed as accumulation at G2/M phase at 0.5 uM after 24 hrs by flow cytometry (reference value: 24.37%); type: functional, cell-based; conditions: Hep 3B2
[14] = species: Homo sapiens; test: Induction of Histone H3 Ser10 phosphorylation in human […] cells at 80 to 160 uM after 18 hrs by immunofluorescence staining; type: cell-based
[15] = Cell cycle arrest in human Hep3B cells assessed as accumulation at G0/G1 phase at 160 uM after 24 hrs by flow cytometry (reference value: 52.99%); type: functional, cell-based; conditions: Hep 3B2
[16] = Cell cycle arrest in human Hep3B cells assessed as accumulation at S phase at 0.5 uM after 24 hrs by flow cytometry (reference value: 11.18%); type: functional, cell-based; conditions: Hep 3B2
[17] = Cell cycle arrest in human Hep3B cells assessed as accumulation at subG1 phase at 80 uM after 24 hrs by flow cytometry (reference value: 1.14%); type: functional, cell-based; conditions: Hep 3B2
[18] = Binding affinity to porcine brain alphabeta-tubulin using ForteBio's Octet system; type: tissue-based, Sus scrofa
[19] = Cell cycle arrest in human Hep3B cells assessed as accumulation at G0/G1 phase at 27 uM after 24 hrs by flow cytometry (reference value: 52.99%); type: functional, cell-based; conditions: Hep 3B2
[20] = Cell cycle arrest in human Hep3B cells assessed as accumulation at G2/M phase at 160 uM after 24 hrs by flow cytometry (reference value: 24.37%); type: functional, cell-based; conditions: Hep 3B2
[21] = system: Hep 3B2; test: Induction of apoptosis in human Hep3B cells assessed as roundup morphology after 24 hrs by microscopic analysis; type: functional, cell-based
[22] = system: Hep 3B2; test: Induction of apoptosis in human Hep3B cells assessed as induction of caspase-3 cleavage at 27 to 160 uM after 18 hrs by Western blotting analysis; type: functional, cell-based
[23] = Cell cycle arrest in human Hep3B cells assessed as accumulation at S phase at 27 uM after 24 hrs by flow cytometry (reference value: 11.18%); type: functional, cell-based; conditions: Hep 3B2
[24] = system: MDA-MB-231; test: Induction of apoptosis in human MDA-MB-231 cells assessed as roundup morphology after 48 hrs by microscopic analysis; type: functional, cell-based
[25] = system: Hep 3B2; test: Induction of apoptosis in human Hep3B cells assessed as induction of PARP cleavage at 27 to 160 uM after 18 hrs by Western blotting analysis; type: functional, cell-based
[26] = target: Apoptosis regulator Bcl-2 (Homo sapiens) (UniProt P10415); test: Induction of Bcl-2 phosphorylation at Ser70 in human Hep3B cells at 160 uM after 18 hrs by Western blotting analysis; type: cell-based; conditions: Hep 3B2
Sequence of Apoptosis regulator Bcl-2 (Homo sapiens) (P10415 whole entry): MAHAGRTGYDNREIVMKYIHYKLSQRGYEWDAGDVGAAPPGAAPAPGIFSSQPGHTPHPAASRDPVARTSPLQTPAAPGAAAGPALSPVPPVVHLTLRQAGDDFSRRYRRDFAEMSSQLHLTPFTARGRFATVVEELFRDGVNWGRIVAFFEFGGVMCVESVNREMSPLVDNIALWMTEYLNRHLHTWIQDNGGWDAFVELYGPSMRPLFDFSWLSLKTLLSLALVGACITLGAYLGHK

[27] = system: HeLa; test: Up-regulation of geminin-GFP in human HeLa cells at 160 uM after 18 hrs by FUCCI analysis; type: functional, cell-based
[28] = Cell cycle arrest in human Hep3B cells assessed as accumulation at G2/M phase at 27 uM after 24 hrs by flow cytometry (reference value: 24.37%); type: functional, cell-based; conditions: Hep 3B2
[29] = target: Cyclin-dependent kinase 1 (Homo sapiens) (UniProt P06493); test: Inhibition of CDC2 phosphorylation at Tyr15 in human Hep3B cells at 160 uM after 18 hrs by Western blotting analysis; type: cell-based; conditions: Hep 3B2
Sequence of Cyclin-dependent kinase 1 (Homo sapiens) (P06493 whole entry, looked up): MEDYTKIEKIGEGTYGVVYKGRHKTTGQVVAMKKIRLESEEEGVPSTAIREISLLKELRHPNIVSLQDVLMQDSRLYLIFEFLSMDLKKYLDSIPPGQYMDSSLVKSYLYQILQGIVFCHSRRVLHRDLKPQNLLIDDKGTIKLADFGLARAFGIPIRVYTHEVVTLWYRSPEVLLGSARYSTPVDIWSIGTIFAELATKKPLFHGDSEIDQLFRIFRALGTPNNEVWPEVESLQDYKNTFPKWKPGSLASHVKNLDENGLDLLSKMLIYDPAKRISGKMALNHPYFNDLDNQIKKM

[30] = Cell cycle arrest in human Hep3B cells assessed as accumulation at G2/M phase at 80 uM after 24 hrs by flow cytometry (reference value: 24.37%); type: functional, cell-based; conditions: Hep 3B2
[31] = system: MDA-MB-231; test: Induction of apoptosis in human MDA-MB-231 cells assessed as roundup morphology after 24 hrs by microscopic analysis; type: functional, cell-based
[32] = Cell cycle arrest in human Hep3B cells assessed as increased the phosphorylation of histone H3 at 80 to 160 uM after 24 hrs by immunofluorescence assay; type: functional, cell-based; conditions: Hep 3B2
[33] = Cell cycle arrest in human Hep3B cells assessed as accumulation at subG1 phase at 27 uM after 24 hrs by flow cytometry (reference value: 1.14%); type: functional, cell-based; conditions: Hep 3B2
[34] = Cell cycle arrest in human Hep3B cells assessed as accumulation at subG1 phase at 0.5 uM after 24 hrs by flow cytometry (reference value: 1.14%); type: functional, cell-based; conditions: Hep 3B2
[35] = Cell cycle arrest in human Hep3B cells assessed as accumulation at subG1 phase at 160 uM after 24 hrs by flow cytometry (reference value: 1.14%); type: functional, cell-based; conditions: Hep 3B2
[36] = system: Hep 3B2; test: Disruption of alpha-tubulin networks in human Hep3B cells at 80 to 160 uM after 18 hrs by immunofluorescence assay; type: cell-based
[37] = system: Hep 3B2; test: Disruption of alpha-tubulin networks in human Hep3B cells assessed as increasing acetylated-tubulin signal at 80 to 160 uM after 18 hrs by immunofluorescence assay; type: cell-based
[38] = Cell cycle arrest in human Hep3B cells assessed as accumulation at M phase at 80 uM after 24 hrs by flow cytometry (reference value: 6.24 +/- 2.14%); type: functional, cell-based; conditions: Hep 3B2
[39] = target: T1, Tubulin (Sus scrofa); test: Induction of porcine tubulin polymerization at 80 uM measured for every 1 min for 60 mins by spectrophotometry; type: protein assay
[40] = Cell cycle arrest in human Hep3B cells assessed as accumulation at G0/G1 phase at 80 uM after 24 hrs by flow cytometry (reference value: 52.99%); type: functional, cell-based; conditions: Hep 3B2
[41] = system: Hep 3B2; test: Disruption of alpha-tubulin networks in human Hep3B cells assessed as induction of polyglutamylated-tubulin bleb formation at 80 to 160 uM after 18 hrs by immunofluorescence assay; type: cell-based
[42] = system: HeLa; test: Inhibition of microtubule dynamics in human HeLa cells expressing EB1-EGFP at 80 to 160 uM after 1 min by image time-lapse analysis; type: functional, cell-based
[43] = Cell cycle arrest in human Hep3B cells assessed as accumulation at M phase at 160 uM after 24 hrs by flow cytometry (reference value: 6.24 +/- 2.14%); type: functional, cell-based; conditions: Hep 3B2
[44] = Cell cycle arrest in human Hep3B cells assessed as accumulation at S phase at 160 uM after 24 hrs by flow cytometry (reference value: 11.18%); type: functional, cell-based; conditions: Hep 3B2

Q: Which Activity [1] does the source give for CC(=O)O[C@H]1C(=O)[C@@]2(C)[C@H]([C@H](OC(=O)c3ccccc3)[C@]3(O)C[C@H](OC(=O)[C@H](O)[C@@H](NC(=O)c4ccccc4)c4ccccc4)C(C)=C1C3(C)C)[C@]1(OC(C)=O)CO[C@@H]1C[C@@H]2O here?
A: Its Activity is “Active”.

Q: And the Activity [2]?
A: Its Activity is “Active”.

Q: What about the Activity [3] of the same compound?
A: Its Activity is “Active”.

Q: What about the Activity [4] of the same compound?
A: The Activity was “Active”.

Q: What about the Activity [5] of the same compound?
A: Its Activity is “Active”.

Q: And the Activity [6]?
A: Its Activity is “Active”.

Q: Which results are given for CCC(C)[C@@H]1NC(=O)[C@@H](Cc2ccccc2)n2c1nc1c(c2=O)C=CC=CO1 (some centres undefined) [PROTUBOXEPIN A]?
A: Activity [7]: Dose-dependent effect; Activity [8]: Active; Activity [9]: Active; Activity [10]: Active; Activity [11]: Active; Activity [12]: 10.8%; Activity [13]: 20.5%; Activity [14]: Active; Activity [15]: 23.7%; Activity [16]: 7.31%; Activity [17]: 6.12%; pKd [18]: 4.15; Activity [19]: 49.1%; Activity [20]: 46.7%; Activity [21]: Dose-dependent effect; Activity [22]: Active; Activity [23]: 10.1%; Activity [24]: Dose-dependent effect; Activity [25]: Active; Activity [26]: Active; Activity [27]: Active; Activity [28]: 26%; inhibition [29]: Active; Activity [30]: 34.4%; Activity [31]: Dose-dependent effect; Activity [32]: Active; Activity [33]: 2.26%; Activity [34]: 7%; Activity [35]: 20.8%; Activity [36]: Active; Activity [37]: Active; Activity [38]: 18.8%; Activity [39]: Active; Activity [40]: 41.9%; Activity [41]: Active; inhibition [42]: Active; Activity [43]: 39.5%; Activity [44]: 7.44%
